Source: patent US8574551B2, “Compositions useful for reducing nephrotoxicity and methods of use thereof” (Verrow Pharmaceuticals, Inc., priority 2005, dated 2013)

Columns and labels:
Type in all cases: in vivo, C57BL/6 mice
[1] = tested on: kidney; experiment: Acyclovir induced nephrotoxicity in mildly renal compromised mice; details: acyclovir 10 or 30 mg/kg IV, 10 consecutive days, alone
Method: These doses however, produce nephrotoxicity in humans. Therefore, the nephroprotective effects of sulfobutylether β cyclodextrin (SBEβCD) in mildly renal compromised mice was evaluated. […] In order to produce mildly renal compromised mice, animals were injected with L-NAME (L arginine methyl ester) 10 mg/kg and Indomethacin 10 mg/kg, ip., 15-20 min before the first injection of acyclovir. Female C57BL/6 mice were administered bolus intravenous injections for ten consecutive days with a dose of 10 mg/kg acyclovir (N=3) or acyclovir 10 mg/kg+SBEβCD 173 mg/kg (N=3), or 30 mg/kg acyclovir (N=3) or acyclovir 30 mg/kg+SBEβCD 520 mg/kg (N=3) (Table 6). In both cases the acyclovir to SBEβCD molar ratio was 1:2. Animals were sacrificed after 48 hrs after the last injection. Renal pathology was assessed by evaluating H&E sections of the kidney under a light microscope. Paraffin sections of […] were cut and stained with H&E and periodic acid Schiff (PAS). They were examined by light microscopy and scored in a blinded fashion. Five arbitratary fields at 40× magnification in each sections was assessed according to the below mentioned parameters and scored according to the criteria mentioned.

[2] = tested on: kidney; experiment: Iohexyl induced nephrotoxicity in mildly renal compromised mice; details: iohexyl 1.5 g/kg iv once, alone, 24 hrs
Method: Iohexyl is nephrotoxic in humans and can produce acute renal failure in renally compromised patients. Therefore, the nephroprotective effects of sulfobutyl ethyl β cyclodextrin (SBE-βCD) in a contrast agent induced nephropathy model involving mildly renal compromised mice was evaluated. […] In order to produce mildly renal compromised mice, female C57BL/6 mice were injected with nitric oxide synthase inhibitor L-NAME (L arginine methyl ester) 10 mg/kg and prostaglandin synthesis inhibitor Indomethacin 10 mg/kg, ip., 15-20 min before injecting of iohexyl. The mice were administered a single bolus intravenous injections of iohexyl 1.5 g/kg (N=4) or iohexyl 1.5 g/kg+SBE-βCD 1.3 g/kg (N=4), or iohexyl 1.5 g/kg+SBE-βCD […] administered 30 minutes before, concurrently, and 30 min after iohexyl injection (N=4) (Table 7). In both cases, the iohexyl to SBE-βCD molar ratio was 1:0.1 during the concurrent dose. […] Renal pathology was assessed by evaluating H&E sections of the kidney under a light microscope.
Paraffin sections of […] were cut and stained with H&E and periodic acid Schiff (PAS). They were examined by light microscopy and scored in a blinded fashion. At 40× magnification, five arbitrary fields in each section was assessed for the below mentioned parameters and scored blindly according to the criteria mentioned. A total of 4 sections were analyzed per kidney.

[3] = tested on: kidney; experiment: Doxorubicin induced nephrotoxicity model in mice; details: doxorubicin 10 mg/kg single iv dose; 72 hours
Method: Female C57BL/6 mice were injected intravenously with a single dose of (10 mg/kg) doxorubicin. The mice were sacrificed after 72 hours. The development of glumerular and tubulointerstitial injury after doxorubicin and doxorubicin+Captisol was evaluated by means of renal histology. Paraffin sections of […] were cut and stained with H&E and periodic acid Schiff (PAS). They were examined by light microscopy and scored in a blinded fashion. Thirty glomeruli and neighboring tubules were scored at superficial cortes (near the surface of the capsule). One hundred glomeruli and neighboring tubules were scored at the level of deep renal cortex and around the outer strips of the outer medulla.

[4] = tested on: kidney; experiment: Gentamicin induced nephrotoxicity in mice; details: 10 consecutive days
Method: These doses however, produce nephrotoxicity in humans. Therefore, nephroprotective effects of SBE-βCD in mildly renal compromised mice was evaluated. […] In order to produce mildly renal compromised mice, animals were injected with L-NAME (L arginine methyl ester) 10 mg/kg and Indomethacin 10 mg/kg, ip., 15-20 min before the first injection of gentamicin. Female C57BL/6 mice were administered bolus intravenous injections for ten consecutive days with a dose of 4.0 mg/kg gentamicin (N=4) or gentamicin 4.0 mg/kg+SBE-βCD 19.2 mg/kg (N=4), or gentamicin 4.0 mg/kg+SBE-βCD 38.4 mg/kg (N=4). Gentamicin to SBE-βCD molar ratios were 1:1 and 1:2 respectively. Animals were sacrificed after 48 hrs after the last injection. Renal pathology was assessed by evaluating H&E sections of the kidney under light microscope.
Paraffin sections of […] were cut and stained with H&E and periodic acid Schiff (PAS). They were examined by light microscopy and scored in a blinded fashion. Five arbitrary fields at 40× magnification in each sections was assessed for the below mentioned parameters and scored according to the criteria mentioned

**Q.** For `Nc1nc2c(ncn2COCCO)c(=O)[nH]1` [Acyclovir, acyclovir], which renal histology [1] is on record?
**A.** Its renal histology is “moderate to severe signs of tubulopathy”.

**Q.** With `CC(=O)N(CC(O)CO)c1c(I)c(C(=O)NCC(O)CO)c(I)c(C(=O)NCC(O)CO)c1I` (centres unmarked) [Iohexyl, iohexyl] as the compound, how does the renal histology [2] read?
**A.** Its renal histology is “moderate to severe signs of tubulopathy”.

**Q.** How did the renal histology [3] turn out when `COc1cccc2c1C(=O)c1c(O)c3c(c(O)c1C2=O)C[C@@](O)(C(=O)CO)C[C@@H]3O[C@H]1C[C@H](N)[C@H](O)[C@H](C)O1` [doxorubicin] was run?
**A.** Its renal histology is “tubular casts, abundant dilated tubules and moderate loss of brush border in the some proximal tubules”.

**Q.** Which renal histology ([4]; healthy mice, gentamicin 4 mg/kg intravenously) does the source give for gentamicin here?
**A.** The renal histology was “no noticeable changes in the tubular cells in the healthy kidney”.

**Q.** What about the renal histology ([4]; mild renal compromised mice (L-NAME + Indomethacin), gentamicin 4 mg/kg iv) of the same compound?
**A.** The renal histology was “extensive tubular vacuolization and necrosis in the renal cortex”.
